In general, IC50 refers to the concentration that inhibits the measured activity by half. In general, inhibition in vivo refers to the share of the control response that was lost under treatment. High values mean a response far below the control, low ones a response near the control.

Data on 28 compounds can be found in patent publication US8710043B2, “TRPM8 antagonists and their use in treatments” (Amgen Inc., priority 2011, dated 2014).

Test [1] has as its target T1, human TRPM8 (Homo sapiens, UniProt Q7Z2W7).
T1 construct: expressed in transfected cells; host or cells: Chinese hamster ovary (CHO) cells, T-REx tetracycline-inducible system, co-transfected with aequorin
Description: Luminescence readout assay for measuring intracellular calcium, icilin activation. The following applies: CHO cells expressing human TRPM8, aequorin luminescence, 1 μM icilin activation; read-out: hTRPM8 IC50. In kind it is cell-based. A digest of the protocol: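 The read-out was luminescence reporting intracellular calcium, recorded by a CCD-based luminometer. Compounds were preincubated for 2.5 min before agonist challenge with 1 μM icilin. Human TRPM8 was expressed in a stable T-REx CHO line, induced with 0.5 μg/mL tetracycline the day before.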

Test [2] relates to icilin induced wet-dog shakes. Description: Inhibition of icilin induced shaking (wet-dog shakes) in rats. In kind it is in vivo. The following applies: Rattus norvegicus, po; dose 1 mg/kg p.o., 2 h before icilin; male Sprague Dawley rats; shakes counted for 30 min post-icilin. Here is the method:
Inhibition of Icilin Induced Shaking in Rats
Example compounds at doses ranging from 0.01 to 3 mg/kg (p.o, suspended in 5% Tween80/Oralplus or suspended in 2% HPMC-1% Tween-80 pH2.2 with MSA, 5 mL/kg) were administered to male Sprague Dawley rats (200-300 g, Harlan, n=6-8/treatment) 2 h before icilin to assess the ability to block the spontaneous wet-dog shake phenomena induced by icilin (i.p., suspended in 100% PEG400 at 0.5 mg/kg, 1 mL/kg or p.o., suspended in 2% HPMC-1% Tween-80 at 3 mg/kg, 2.5 mL/kg). Spontaneous wet-dog shakes were counted manually by two blinded observers or using LABORAS automation (Metris) for 30 min post-icilin.

T1 sequence (Q7Z2W7 whole entry): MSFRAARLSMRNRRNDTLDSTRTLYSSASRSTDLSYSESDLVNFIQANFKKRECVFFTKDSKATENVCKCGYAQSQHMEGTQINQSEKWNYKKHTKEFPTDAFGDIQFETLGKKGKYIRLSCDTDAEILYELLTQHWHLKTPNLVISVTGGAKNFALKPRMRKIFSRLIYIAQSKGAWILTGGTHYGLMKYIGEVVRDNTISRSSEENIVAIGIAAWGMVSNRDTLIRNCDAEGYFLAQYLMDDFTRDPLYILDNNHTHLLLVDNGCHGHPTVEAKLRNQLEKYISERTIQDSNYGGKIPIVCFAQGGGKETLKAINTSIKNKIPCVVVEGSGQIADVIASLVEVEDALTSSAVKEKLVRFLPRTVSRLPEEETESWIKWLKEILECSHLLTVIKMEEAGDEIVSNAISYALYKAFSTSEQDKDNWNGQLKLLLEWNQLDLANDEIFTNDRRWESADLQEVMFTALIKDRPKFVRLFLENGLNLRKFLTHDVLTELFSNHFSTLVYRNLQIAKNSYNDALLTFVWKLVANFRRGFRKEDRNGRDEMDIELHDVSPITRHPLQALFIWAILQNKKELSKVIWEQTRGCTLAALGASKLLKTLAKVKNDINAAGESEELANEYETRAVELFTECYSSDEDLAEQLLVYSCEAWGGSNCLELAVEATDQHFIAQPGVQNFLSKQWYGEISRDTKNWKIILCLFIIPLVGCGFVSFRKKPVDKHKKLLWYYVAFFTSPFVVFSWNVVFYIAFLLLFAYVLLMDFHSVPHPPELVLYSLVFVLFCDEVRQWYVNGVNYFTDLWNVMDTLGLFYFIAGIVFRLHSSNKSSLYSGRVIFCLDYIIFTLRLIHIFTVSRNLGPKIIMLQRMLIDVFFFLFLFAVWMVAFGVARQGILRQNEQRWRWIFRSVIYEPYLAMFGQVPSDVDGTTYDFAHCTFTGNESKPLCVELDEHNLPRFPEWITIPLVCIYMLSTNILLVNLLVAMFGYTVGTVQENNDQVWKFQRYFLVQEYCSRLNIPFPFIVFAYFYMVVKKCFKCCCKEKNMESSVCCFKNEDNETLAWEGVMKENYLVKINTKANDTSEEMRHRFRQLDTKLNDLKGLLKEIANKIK

With `O=C(N[C@@H](c1ccc(OC(F)(F)F)cc1F)c1ncccc1F)c1ccc(=O)[nH]c1` [Example 386, (S)-N-((2-fluoro-4-(trifluoromethoxy)phenyl)(3-fluoropyridin-2-yl)methyl)-6-oxo-1,6-dihydropyridine-3-carboxamide 2,2,2-trifluoroacetate], the IC50 in test [1] was 10.5 nM. In test [2], this compound yielded an inhibition in vivo at 1 mg/kg of 97%.
The matching figures for `Cc1cccnc1[C@@H](NC(=O)c1ccc(=O)n(C)c1)c1ccc(OC(F)(F)F)c(F)c1` [Example 348, (S)-N-((3-fluoro-4-(trifluoromethoxy)phenyl)(3-methylpyridin-2-yl)methyl)-1-methyl-6-oxo-1,6-dihydropyridine-3-carboxamide]: 15.4 nM and 51%.
The like results for `O=C(N[C@@H](c1ccc(OC(F)(F)F)cc1)c1ccccn1)c1ccc(=O)[nH]c1` [Example 377, (S)-6-oxo-N-(pyridin-2-yl(4-(trifluoromethoxy)phenyl)methyl)-1,6-dihydropyridine-3-carboxamide] were, in that order, 20.7 nM and 94%.
In the case of `O=C(N[C@@H](c1ccc(OC(F)(F)F)c(F)c1)c1ncccc1F)c1ccc(=O)n(CCO)c1` [Example 297, (S)-N-((3-fluoro-4-(trifluoromethoxy)phenyl)(3-fluoropyridin-2-yl)methyl)-1-(2-hydroxyethyl)-6-oxo-1,6-dihydropyridine-3-carboxamide], in test [1], the half-maximal inhibitory concentration (IC50) is 16.8 nM. The same compound gave an inhibition in vivo at 1 mg/kg in test [2] of 78%.
The like results for `O=C(N[C@@H](c1ccc(OC(F)(F)F)cc1)c1ncccc1F)c1ccc(=O)[nH]c1` [Example 1, (S)-N-((3-fluoropyridin-2-yl)(4-(trifluoromethoxy)phenyl)methyl)-6-oxo-1,6-dihydropyridine-3-carboxamide] were, in that order, 9.8 nM and 100%.
The like results for `O=C(N[C@@H](c1ccc(OC(F)(F)F)c(F)c1)c1ccccc1F)c1ccc(=O)[nH]c1` [Example 295, (S)-N-((3-fluoro-4-(trifluoromethoxy)phenyl)(2-fluorophenyl)methyl)-6-oxo-1,6-dihydropyridine-3-carboxamide] were, in that order, 18 nM and 77%.
The matching figures for `O=C(N[C@@H](c1ccc(OC(F)(F)F)cc1)c1ncccc1F)c1ccc2oc(=O)[nH]c2c1` [Example 79, (S)-N-((3-fluoropyridin-2-yl)(4-(trifluoromethoxy)phenyl)methyl)-2-oxo-2,3-dihydrobenzo[d]oxazole-5-carboxamide]: 5.1 nM and 99%.
As for `O=C(N[C@@H](c1ccc(C(F)(F)F)cc1)c1ncccc1F)c1ccc2oc(=O)[nH]c2c1` [Example 76, (S)-N-((3-fluoropyridin-2-yl)(4-(tnfluoromethyl)phenyl)methyl)-2-oxo-2,3-dihydrobenzo[d]oxazole-5-carboxamide], the IC50 in test [1] was determined as 4.5 nM. For the same compound, at 1 mg/kg the inhibition in vivo in test [2] was 100%.
`Cn1cc(C(=O)N[C@@H](c2ccc(C(F)(F)F)cc2)c2ncccc2F)ccc1=O` [Example 68, (S)-N-((3-fluoropyridin-2-yl)(4-(trifluoromethyl)phenyl)methyl)-1-methyl-6-oxo-1,6-dihydropyridine-3-carboxamide]: the IC50 in test [1] worked out at 14.2 nM. In test [2], this compound gave an inhibition in vivo at 1 mg/kg of 100%.
For the compound `O=C1Cc2cc(C(=O)N[C@@H](c3ccc(OC(F)(F)F)cc3)c3ncccc3F)ccc2N1` [Example 91, (S)-N-((3-fluoropyridin-2-yl)(4-(trifluoromethoxy)phenyl)methyl)-2-oxoindoline-5-carboxamide], the IC50 in test [1] is 13.7 nM. In test [2], testing at 1 mg/kg gave an inhibition in vivo of 100%.
For the compound `Cc1cccnc1[C@@H](NC(=O)c1ccc2oc(=O)[nH]c2c1)c1ccc(C(F)(F)F)cc1` [Example 84, (S)-N-((3-methylpyridin-2-methyl)phenyl)yl)(4-(trifluoromethyl)-2-oxo-2,3-dihydrobenzo[d]oxazole-5-carboxamide], the half-maximal inhibitory concentration (IC50) in test [1] was 5.3 nM.
The same measure, in the same setting: the result for `O=C(N[C@@H](c1ccc(Cl)c(Cl)c1)c1ncccc1F)c1ccc(=O)[nH]c1` [Example 250, (S)-N-((3,4-dichlorophenyl)(3-fluoropyridin-2-yl)methyl)-6-oxo-1,6-dihydropyridine-3-carboxamide 2,2,2-trifluoroacetate] reads 19.2 nM; that for `CC(C)(C)OC(=O)N1CC(CC(=O)N[C@@H](c2ccc(C(F)(F)F)cc2)c2ncccc2C(F)(F)F)C1` [Example 229, (S)-tert-butyl 3-(2-oxo-2-(((4-(trifluoromethyl)phenyl)(3-(trifluoromethyl)pyridin-2-yl)methyl)amino)ethyl)azetidine-1-carboxylate], 354 nM; that for `Cc1cccnc1[C@@H](NC(=O)c1ccc2nccn2c1)c1ccc(C(F)(F)F)cc1` [Example 314, (S)-N-((3-methylpyridin-2-yl)(4-(trifluoromethyl)phenyl)methyl)imidazo[1,2-a]pyridine-6-carboxamide], 21.8 nM.
Still for that read-out and setting: the result for `O=C(N[C@@H](c1ccc(OC(F)(F)F)cc1)c1ncccc1F)c1ccc2nnnn2c1` [Example 309, (S)-N-((3-fluoropyridin-2-yl)(4-(trifluoromethoxy)phenyl)methyl)tetrazolo[1,5-a]pyridine-6-carboxamide] reads 30.8 nM; that for `O=C(N[C@@H](c1ccc(C(F)(F)F)cc1)c1ncccc1F)c1cccnc1` [Example 203, (S)-N-((3-fluoropyridin-2-yl)(4-(trifluoromethyl)phenyl)methyl)nicotinamide], 135 nM.
On the same count and under the same terms, the result for `Cc1cccnc1[C@@H](NC(=O)c1ccc2oc(=O)[nH]c2c1)c1ccc(OC(F)(F)F)c(F)c1` [Example 358, (S)-N-((3-fluoro-4-(trifluoromethoxy)phenyl)(3-methylpyridin-2-yl)methyl)-2-oxo-2,3-dihydrobenzo[d]oxazole-5-carboxamide] reads 14.1 nM; that for `O=C(Cc1ccncc1)N[C@@H](c1ccc(OC(F)(F)F)c(F)c1)c1ncccc1F` [Example 290, (S)-N-((3-fluoro-4-(trifluoromethoxy)phenyl)(3-fluoropyridin-2-yl)methyl)-2-(pyridin-4-yl)acetamide], 944 nM.
For `CC#Cc1cccnc1[C@@H](NC(=O)c1ccccc1)c1ccc(C(F)(F)F)cc1` [Example 98, (S)-N-((3-(prop-1-yn-1-yl)pyridin-2-yl)(4-(trifluoromethyl)phenyl)methyl)benzamide], in test [1], the half-maximal inhibitory concentration (IC50) amounted to 125 nM.
Still for that read-out and setting: the result for `O=C(N[C@@H](c1ccc(C(F)(F)F)cc1)c1ncccc1C(F)(F)F)c1cc[nH]c(=O)c1` [Example 44, (S)-2-hydroxy-N-((4-(trifluoromethyl)phenyl)(3-(trifluoromethyl)pyridin-2-yl)methyl)isonicotinamide] reads 229 nM; that for `O=C(N[C@@H](c1ccc(OC(F)(F)F)c(F)c1)c1ccccn1)c1ccc2[nH]cnc2c1` [Example 393, (S)-N-((3-fluoro-4-(trifluoromethoxy)phenyl)(pyridin-2-yl)methyl)-1H-benzo[d]imidazole-5-carboxamide], 6.1 nM; that for `O=C(N[C@@H](c1ccc(C(F)(F)F)cc1)c1ncccc1F)c1cccc(F)c1` [Example 187, (S)-3-fluoro-N-((3-fluoropyridin-2-yl)(4-(trifluoromethyl)phenyl)methyl)benzamide], 45.3 nM.
For the compound `O=C(N[C@@H](c1ccc(C(F)(F)F)cc1)c1ncccc1C(F)(F)F)C1CCC(O)CC1` (stereo partly drawn) [Example 242, (S)-4-hydroxy-N-((4-(trifluoromethyl)phenyl)(3-(trifluoromethyl)pyridin-2-yl)methyl)cyclohexanecarboxamide], the half-maximal inhibitory concentration (IC50) in test [1] turned out to be 1030 nM.
The same measure, in the same setting: the result for `CC#Cc1cccnc1[C@@H](NC(=O)c1ccc2cccnc2c1)c1ccc(C(F)(F)F)cc1` [Example 97, (S)-N-((3-(prop-1-yn-1-yl)pyridin-2-yl)(4-(trifluoromethyl)phenyl)methyl)quinoline-7-carboxamide 2,2,2-trifluoroacetate] reads 119 nM.
`O=C(N[C@@H](c1ccc(C(F)(F)F)cc1)c1ncccc1C(F)(F)F)c1ccc(C(=O)O)c(Br)c1` [Example 100, (S)-2-bromo-4-(((4-(trifluoromethyl)phenyl)(3-(trifluoromethyl)pyridin-2-yl)methyl)carbamoyl)benzoic acid]: the half-maximal inhibitory concentration (IC50) in test [1] came out at 61.5 nM.
As to `COc1ccc(C(=O)N[C@@H](c2ccc(C(F)(F)F)cc2)c2ncccc2C(F)(F)F)cc1` [Example 171, (S)-4-methoxy-N-((4-(trifluoromethyl)phenyl)(3-(trifluoromethyl)pyridin-2-yl)methyl)benzamide], the concentration for half-maximal inhibition (IC50) in test [1] came out at 17.3 nM.
Still for that read-out and setting: as for `O=C(N[C@@H](c1ccc2ccccc2c1)c1ncccc1C(F)(F)F)c1ccc2cccnc2c1` [Example 15, (S)-N-(naphthalen-2-yl(3-(trifluoromethyl)pyridin-2-yl)methyl)quinoline-7-carboxamide], the figure is 117 nM.
Turning to `O=C(N[C@@H](c1ccc(OC(F)(F)F)c(F)c1)c1ncccc1C(F)(F)F)c1ccc2oc(=O)[nH]c2c1` [Example 385, (S)-N-((3-fluoro-4-(trifluoromethoxy)phenyl)(3-(trifluoromethyl)pyridin-2-yl)methyl)-2-oxo-2,3-dihydrobenzo[d]oxazole-5-carboxamide], in test [1], the IC50 was found to be 6.7 nM.
